{"source": "patent US11078216B2", "about": "“Bisaryl amides as NRF2 activators” (GLAXOSMITHKLINE INTELLECTUAL PROPERTY DEVELOPMENT LIMITED, priority 2016, dated 2021)", "tested_on": "NRF2 (NQO1 activity as marker for NRF2 activation), BEAS-2B cells", "assay": "BEAS-2B NQO1 MTT Assay", "assay_type": "cell-based", "settings": "Homo sapiens, EC50 of NQO1 specific activity induction, 48 hours incubation, read-out: EC50", "in_short": "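As a marker of NRF2 activation, NQO1 specific activity was read from the rate of absorbance change at 570 nm in MTT cocktail over 30 minutes. Lysates came from BEAS-2B cells treated for 48 hours at 37° C, and EC50 was derived by 3-parameter fitting.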", "data": [{"smiles": "CC[C@@H]1CN(Cc2cc([C@@H](c3ccc4c(nnn4CC)c3C)C(C)(C)C(=O)Nc3cnc(CNC(=O)OC(C)(C)C)nc3)ccc2C)S(=O)(=O)c2ccccc2O1", "note": "[Example 188, tert-Butyl ((5-((S)-3-(3-(((R)-4-ethyl-1,1-dioxido-3,4-dihydro-2H-benzo[b][1,4,5]oxathiazepin-2-yl)methyl)-4-methylphenyl)-3-(1-ethyl-4-methyl-1H-benzo[d][1,2,3]triazol-5-yl)-2,2-dimethylpropanamido)pyrimidin-2-yl)methyl)carbamate]", "values": [{"measurement": "EC50", "result": "10 to 100", "unit": "nM"}]}, {"smiles": "CC[C@@H]1CN(Cc2cc([C@@H](c3ccc4c(nnn4CC)c3C)C(C)(C)C(=O)Nc3cnc(C(=O)N(C)C)nc3)ccc2C)S(=O)(=O)c2ccccc2O1", "note": "[Example 189, 5-((S)-3-(3-(((R)-4-Ethyl-1,1-dioxido-3,4-dihydro-2H-benzo[b][1,4,5]oxathiazepin-2-yl)methyl)-4-methylphenyl)-3-(1-ethyl-4-methyl-1H-benzo[d][1,2,3]triazol-5-yl)-2,2-dimethylpropanamido)-N,N-dimethylpyrimidine-2-carboxamide]", "values": [{"measurement": "EC50", "result": "100 to 1000", "unit": "nM"}]}, {"smiles": "CC[C@@H]1CN(Cc2cc([C@@H](c3ccc4c(nnn4CC)c3C)C(C)(C)C(=O)Nc3cnc(OCC(=O)OC)nc3)ccc2C)S(=O)(=O)c2ccccc2O1", "note": "[Example 190, Methyl 2-((5-((S)-3-(3-(((R)-4-ethyl-1,1-dioxido-3,4-dihydro-2H-benzo[b][1,4,5]oxathiazepin-2-yl)methyl)-4-methylphenyl)-3-(1-ethyl-4-methyl-1H-benzo[d][1,2,3]triazol-5-yl)-2,2-dimethylpropanamido)pyrimidin-2-yl)oxy)acetate]", "values": [{"measurement": "EC50", "result": "100 to 1000", "unit": "nM"}]}, {"smiles": "CC[C@@H]1CN(Cc2cc([C@@H](c3ccc4c(nnn4CC)c3C)C(C)(C)C(=O)Nc3cnc(OCCNC(=O)OC(C)(C)C)nc3)ccc2C)S(=O)(=O)c2ccccc2O1", "note": "[Example 191, tert-Butyl (2-((5-((S)-3-(3-(((R)-4-ethyl-1,1-dioxido-3,4-dihydro-2H-benzo[b]-[1,4,5]oxathiazepin-2-yl)methyl)-4-methylphenyl)-3-(1-ethyl-4-methyl-1H-benzo[d][1,2,3]triazol-5-yl)-2,2-dimethylpropanamido)pyrimidin-2-yl)oxy)-ethyl)carbamate]", "values": [{"measurement": "EC50", "result": "10 to 100", "unit": "nM"}]}, {"smiles": "CC[C@@H]1CN(Cc2cc([C@@H](c3ccc4c(nnn4CC)c3C)C(C)(C)C(=O)Nc3cnc(OCCOC(C)(C)C)nc3)ccc2C)S(=O)(=O)c2ccccc2O1", "note": "[Example 192, (S)-N-(2-(2-(tert-Butoxy)ethoxy)pyrimidin-5-yl)-3-(3-(((R)-4-ethyl-1,1-dioxido-3,4-dihydro-2H-benzo[b][1,4,5]oxathiazepin-2-yl)methyl)-4-methylphenyl)-3-(1-ethyl-4-methyl-1H-benzo[d][1,2,3]triazol-5-yl)-2,2-dimethylpropanamide]", "values": [{"measurement": "EC50", "result": "10 to 100", "unit": "nM"}]}, {"smiles": "CC[C@@H]1CN(Cc2cc([C@@H](c3ccc4c(nnn4CC)c3C)C(C)(C)C(=O)Nc3cnc(OCCOC)nc3)ccc2C)S(=O)(=O)c2ccccc2O1", "note": "[Example 193, (S)-3-(3-(((R)-4-Ethyl-1,1-dioxido-3,4-dihydro-2H-benzo[b][1,4,5]oxathiazepin-2-yl)methyl)-4-methylphenyl)-3-(1-ethyl-4-methyl-1H-benzo[d][1,2,3]triazol-5-yl)-N-(2-(2-methoxyethoxy)pyrimidin-5-yl)-2,2-dimethylpropanamide]", "values": [{"measurement": "EC50", "result": "1 to 10", "unit": "nM"}]}, {"smiles": "CC[C@@H]1CN(Cc2cc([C@@H](c3ccc4c(nnn4CC)c3C)C(C)(C)C(=O)Nc3cnc(CO)nc3)ccc2C)S(=O)(=O)c2ccccc2O1", "note": "[Example 194, (S)-3-(3-(((R)-4-Ethyl-1,1-dioxido-3,4-dihydro-2H-benzo[b][1,4,5]oxathiazepin-2-yl)methyl)-4-methylphenyl)-3-(1-ethyl-4-methyl-1H-benzo[d][1,2,3]triazol-5-yl)-N-(2-(hydroxymethyl)pyrimidin-5-yl)-2,2-dimethylpropanamide]", "values": [{"measurement": "EC50", "result": "10 to 100", "unit": "nM"}]}, {"smiles": "CC[C@@H]1CN(Cc2cc([C@@H](c3ccc4c(nnn4CC)c3C)C(C)(C)C(=O)Nc3cnc(C(=O)O)nc3)ccc2C)S(=O)(=O)c2ccccc2O1", "note": "[Example 195, 5-((S)-3-(3-(((R)-4-Ethyl-1,1-dioxido-3,4-dihydro-2H-benzo[b][1,4,5]oxathiazepin-2-yl)methyl)-4-methylphenyl)-3-(1-ethyl-4-methyl-1H-benzo[d][1,2,3]triazol-5-yl)-2,2-dimethylpropanamido)pyrimidine-2-carboxylic Acid]", "values": [{"measurement": "EC50", "result": "10 to 100", "unit": "nM"}]}, {"smiles": "CC[C@@H]1CN(Cc2cc([C@@H](c3ccc4c(nnn4CC)c3C)C(C)(C)C(=O)Nc3cnc(CN)nc3)ccc2C)S(=O)(=O)c2ccccc2O1", "note": "[Example 196, (S)—N-(2-(Aminomethyl)pyrimidin-5-yl)-3-(3-(((R)-4-ethyl-1,1-dioxido-3,4-dihydro-2H-benzo[b][1,4,5]oxathiazepin-2-yl)methyl)-4-methylphenyl)-3-(1-ethyl-4-methyl-1H-benzo[d][1,2,3]triazol-5-yl)-2,2-dimethylpropanamide]", "values": [{"measurement": "EC50", "result": "100 to 1000", "unit": "nM"}]}, {"smiles": "CC[C@@H]1CN(Cc2cc([C@@H](c3ccc4c(nnn4CC)c3C)C(C)(C)C(=O)Nc3cnc(OCC(=O)O)nc3)ccc2C)S(=O)(=O)c2ccccc2O1", "note": "[Example 197, 2-((5-((S)-3-(3-(((R)-4-Ethyl-1,1-dioxido-3,4-dihydro-2H-benzo[b][1,4,5]oxathiazepin-2-yl)methyl)-4-methylphenyl)-3-(1-ethyl-4-methyl-1H-benzo[d][1,2,3]triazol-5-yl)-2,2-dimethylpropanamido)pyrimidin-2-yl)oxy)acetic Acid]", "values": [{"measurement": "EC50", "result": "10 to 100", "unit": "nM"}]}, {"smiles": "CC[C@@H]1CN(Cc2cc([C@@H](c3ccc4c(nnn4CC)c3C)C(C)(C)C(=O)Nc3cnc(OCCN)nc3)ccc2C)S(=O)(=O)c2ccccc2O1", "note": "[Example 198, (S)—N-(2-(2-Aminoethoxy)pyrimidin-5-yl)-3-(3-(((R)-4-ethyl-1,1-dioxido-3,4-dihydro-2H-benzo[b][1,4,5]oxathiazepin-2-yl)methyl)-4-methylphenyl)-3-(1-ethyl-4-methyl-1H-benzo[d][1,2,3]triazol-5-yl)-2,2-dimethylpropanamide]", "values": [{"measurement": "EC50", "result": "10 to 100", "unit": "nM"}]}, {"smiles": "CC[C@@H]1CN(Cc2cc([C@@H](c3ccc4c(nnn4CC)c3C)C(C)(C)C(=O)Nc3cnc(OCCO)nc3)ccc2C)S(=O)(=O)c2ccccc2O1", "note": "[Example 199, (S)-3-(3-(((R)-4-Ethyl-1,1-dioxido-3,4-dihydro-2H-benzo[b][1,4,5]oxathiazepin-2-yl)methyl)-4-methylphenyl)-3-(1-ethyl-4-methyl-1H-benzo[d][1,2,3]triazol-5-yl)-N-(2-(2-hydroxyethoxy)pyrimidin-5-yl)-2,2-dimethylpropanamide]", "values": [{"measurement": "EC50", "result": "10 to 100", "unit": "nM"}]}, {"smiles": "CC[C@@H]1CN(Cc2cc([C@@H](c3ccc4c(nnn4CC)c3C)C(C)(C)C(=O)NCC(=O)O)ccc2C)S(=O)(=O)c2ccccc2O1", "note": "[Example 200, 2-((S)-3-(3-(((R)-4-ethyl-1,1-dioxido-3,4-dihydro-2H-benzo[b][1,4,5]oxathiazepin-2-yl)methyl)-4-methylphenyl)-3-(1-ethyl-4-methyl-1H-benzo[d][1,2,3]triazol-5-yl)-2,2-dimethylpropanamido)acetate]", "values": [{"measurement": "EC50", "result": "10 to 100", "unit": "nM"}]}, {"smiles": "CC[C@@H]1CN(Cc2cc([C@@H](c3ccc4c(nnn4CC)c3C)C(C)(C)C(=O)NCCC(=O)O)ccc2C)S(=O)(=O)c2ccccc2O1", "note": "[Example 201, 3-((S)-3-(3-(((R)-4-ethyl-1,1-dioxido-3,4-dihydro-2H-benzo[b][1,4,5]oxathiazepin-2-yl)methyl)-4-methylphenyl)-3-(1-ethyl-4-methyl-1H-benzo[d][1,2,3]triazol-5-yl)-2,2-dimethylpropanamido)propanoic acid]", "values": [{"measurement": "EC50", "result": "100 to 1000", "unit": "nM"}]}, {"smiles": "CC[C@@H]1CN(Cc2cc([C@@H](c3ccc4c(nnn4CC)c3C)C(C)(C)C(=O)NC(CC(=O)O)C(=O)O)ccc2C)S(=O)(=O)c2ccccc2O1", "note": "(stereo partly drawn) [Example 202, 2-((S)-3-(3-(((R)-4-ethyl-1,1-dioxido-3,4-dihydro-2H-benzo[b][1,4,5]oxathiazepin-2-yl)methyl)-4-methylphenyl)-3-(1-ethyl-4-methyl-1H-benzo[d][1,2,3]triazol-5-yl)-2,2-dimethylpropanamido)succinic acid]", "values": [{"measurement": "EC50", "result": "1 to 10", "unit": "nM"}]}, {"smiles": "CC[C@@H]1CN(Cc2cc([C@@H](c3ccc4c(nnn4CC)c3C)C(C)(C)C(=O)NC(CC(=O)O)CC(=O)O)ccc2C)S(=O)(=O)c2ccccc2O1", "note": "[Example 203, 3-((S)-3-(3-(((R)-4-ethyl-1,1-dioxido-3,4-dihydro-2H-benzo[b][1,4,5]oxathiazepin-2-yl)methyl)-4-methylphenyl)-3-(1-ethyl-4-methyl-1H-benzo[d][1,2,3]triazol-5-yl)-2,2-dimethylpropanamido)pentanedioic acid]", "values": [{"measurement": "EC50", "result": "1000 to 10000", "unit": "nM"}]}, {"smiles": "CC[C@@H]1CN(Cc2cc([C@@H](c3ccc4c(nnn4CC)c3C)C(C)(C)C(=O)NC(CC(=O)O)c3ccncc3)ccc2C)S(=O)(=O)c2ccccc2O1", "note": "(stereo partly drawn) [Example 204, 3-((S)-3-(3-(((R)-4-ethyl-1,1-dioxido-3,4-dihydro-2H-benzo[b][1,4,5]oxathiazepin-2-yl)methyl)-4-methylphenyl)-3-(1-ethyl-4-methyl-1H-benzo[d][1,2,3]triazol-5-yl)-2,2-dimethylpropanamido)-3-(pyridin-4-yl)propanoic acid]", "values": [{"measurement": "EC50", "result": "100 to 1000", "unit": "nM"}]}, {"smiles": "CC[C@@H]1CN(Cc2cc([C@@H](c3ccc4c(nnn4CC)c3C)C(C)(C)C(=O)NC(C)C(=O)O)ccc2C)S(=O)(=O)c2ccccc2O1", "note": "(stereo partly drawn) [Example 205, 2-((S)-3-(3-(((R)-4-ethyl-1,1-dioxido-3,4-dihydro-2H-benzo[b][1,4,5]oxathiazepin-2-yl)methyl)-4-methylphenyl)-3-(1-ethyl-4-methyl-1H-benzo[d][1,2,3]triazol-5-yl)-2,2-dimethylpropanamido)propanoic acid]", "values": [{"measurement": "EC50", "result": "100 to 1000", "unit": "nM"}]}, {"smiles": "CC[C@@H]1CN(Cc2cc([C@@H](c3ccc4c(nnn4CC)c3C)C(C)(C)C(=O)NCCC(F)(F)F)ccc2C)S(=O)(=O)c2ccccc2O1", "note": "[Example 206, (S)-3-(3-(((R)-4-ethyl-1,1-dioxido-3,4-dihydro-2H-benzo[b][1,4,5]oxathiazepin-2-yl)methyl)-4-methylphenyl)-3-(1-ethyl-4-methyl-1H-benzo[d][1,2,3]triazol-5-yl)-2,2-dimethyl-N-(3,3,3-trifluoropropyl)propanamide]", "values": [{"measurement": "EC50", "result": "10 to 100", "unit": "nM"}]}]}
